Counter-ions that a name gives are not always drawn. Like-named read-outs stand apart in the source and are kept apart here. Where no end group is shown, it is not given here.
Tests used:
[1] = system: spore formation by C. difficile ATCC 630; assay: Spore formation inhibition; format: cell-based, Clostridioides difficile; settings: 0.5× MIC, 12 hours
Description: After the incubation period, the total bacterial count for each treatment group was determined by serial dilution and plating on BHIS agar plates supplemented with 0.1% taurocholic acid. To determine the presence of spores, the remaining bacterial culture from each treatment group was heated at 65°C for 30 minutes to ensure all vegetative cells were killed. The bacterial culture from each treatment group was then serially diluted and plated on BHIS agar plates supplemented with 0.1% taurocholic acid. The plates were incubated overnight, and the CFU counts for each treatment group were determined the following day.

[2] = system: C. difficile ATCC 630; assay: Effect of pH on MIC/MBC, C. difficile ATCC 630; format: cell-based, Clostridioides difficile; settings: Clostridioides difficile
Description: (§1) The susceptibility of C. difficile isolates to the CPP-PNA conjugates or to the CPP alone was determined in vitro as described before with slight modifications ([43] [–] [45]). Briefly, the CPP-PNA conjugates, the CPP alone, and the antibiotics vancomycin and fidaxomicin were added in triplicate to the first row of ultra-low adhesion 96-well plates (Corning Inc., Corning, NY). A suspension of C. difficile equivalent to 0.5 McFarland solution was added to Mueller-Hilton II broth, which was then added to the ultra-low adhesion plate and then serially diluted. The plates were incubated anaerobically for 48 hours at 37°C. The minimum inhibitory concentration was defined as the lowest concentration of the CPP-PNA conjugate that could inhibit bacterial growth when observed visually.
(§2) The MIC and MBC experiments were repeated twice.
(§3) The susceptibility of C. difficile (ATCC 630 and ATCC BAA 1870) to the rpoA-TAT conjugate was evaluated over a pH range of 6 to 9 using the broth microdilution method ([43], [46] [–] [48]). The desired pH for susceptibility testing was attained by the addition of either 0.1 N HCL or 1 N NaOH to the media. The experiment was repeated twice.

[3] = system: C. difficile ATCC 630; assay: microbe, parasite or virus in culture
Description: as §1, §2

[4] = system: C. difficile 630; assay: Effect of high bacterial inoculum on activity; format: cell-based, Clostridioides difficile; settings: 8 hours
Description: The in vitro efficacy of the PNA constructs against a high inoculum size of C. difficile 630 was determined. Briefly, the PNA constructs and control antibiotics, at a concentration of 1× MIC, were added in triplicate to low adhesion microcentrifuge tubes (Corning Inc., Corning, NY). A high inoculum of C. difficile suspension equivalent to ~5 × 10^6 and ~5 × 10^7 cells was added to the tubes, which were incubated anaerobically at 37°C. The number of viable bacteria in each treatment group was determined by serial dilution and plating on BHIS agar plates at 8 hours and 24 hours post-incubation, respectively. The effect of a high inoculum on the activity of the PNA construct was repeated twice.

[5] = system: C. difficile ATCC BAA 1870; assay: MIC/MBC broth microdilution, C. difficile ATCC BAA 1870; format: cell-based, Clostridioides difficile
Description: as §1, §2

[6] = system: C. difficile 1071; assay: MIC/MBC broth microdilution, C. difficile 1071; format: cell-based, Clostridioides difficile
Description: as §1, §2

[7] = system: Bifidobacterium longum subsp. longum HM 846; assay: MIC gut microflora, Bifidobacterium longum; format: cell-based
Description: (§4) The susceptibility of gut microflora strains to the rpoA-TAT conjugate was determined using the broth microdilution assay, as described above. Briefly, bacterial suspensions of Bifidobacterium sp. and Bacteroides sp., in supplemented BHIS broth, and Lactobacilli strains, in MRS broth, were added to ultra-low adhesion 96-well plates and serially diluted. The MIC was recorded after 48 hours.

[8] = system: C. difficile 1079; assay: MIC/MBC broth microdilution, C. difficile 1079; format: cell-based, Clostridioides difficile
Description: as §1, §2

[9] = system: toxin A and toxin B production by C. difficile 630; assay: Toxin production inhibition (ELISA); format: cell-based, Clostridioides difficile; settings: sub-inhibitory concentrations 0.125×, 0.25×, 0.5× MIC, 8 hours, ELISA
Description: After the incubation period, the bacterial count in each treatment group was determined by serial dilution and plating. Toxin content in the supernatant of each treatment group was determined using an enzyme-linked immunosorbent assay (ELISA, tgcBIOMICS) kit, as per the manufacturer’s protocol.

[10] = system: Bacteroides fragilis HM 714; assay: MIC gut microflora, Bacteroides fragilis; format: cell-based; settings: Bacteroides fragilis, HM714, 48 h
Description: as §4

[11] = system: C. difficile ATCC 43255; assay: MIC/MBC broth microdilution, C. difficile ATCC 43255; format: cell-based, Clostridioides difficile
Description: as §1, §2

[12] = system: C. difficile 1082; assay: MIC/MBC broth microdilution, C. difficile 1082; format: cell-based, Clostridioides difficile
Description: as §1, §2

[13] = system: Lactobacillus rhamnosus ATCC 53103; assay: MIC gut microflora, Lactobacillus rhamnosus; format: cell-based; settings: Lacticaseibacillus rhamnosus, ATCC53103, 48 h
Description: as §4

[14] = system: C. difficile 630; assay: Killing kinetics (time-kill assay); format: cell-based, Clostridioides difficile; settings: 1× MIC, within 24 hours of incubation, inoculum ~5 × 10^5 CFU/mL
Description: The killing kinetics of the PNA construct was determined as described previously ([45] [–] [47]). Briefly, an overnight culture of C. difficile 630 was diluted 1:50 into fresh Mueller Hilton II broth (~10^5 CFU/mL) and added in triplicate to low adhesion microcentrifuge tubes containing either sterile water, the rpoA-TAT construct (1× MIC), or the positive controls vancomycin or fidaxomicin (1× MIC). The number of viable bacteria in each treatment group was determined by taking aliquots at 0, 4, 8, 12, 16, and 24 hours; these aliquots were then serially diluted and plated on BHIS agar plates. The plates were incubated anaerobically, and the number of colony-forming units for each treatment group was recorded the following day. The experiment was repeated twice.

[15] = system: Lactobacillus brevis ATCC 14869; assay: MIC gut microflora, Lactobacillus brevis; format: cell-based; settings: Levilactobacillus brevis, ATCC14869, 48 h
Description: as §4

[16] = system: C. difficile ATCC BAA 1870; assay: Effect of pH on MIC/MBC, C. difficile ATCC BAA 1870; format: cell-based, Clostridioides difficile; settings: Clostridioides difficile
Description: as §1, §2, §3

[17] = system: Lactobacillus gasseri ATCC 19992; assay: MIC gut microflora, Lactobacillus gasseri; format: cell-based
Description: as §4

[18] = system: clinical isolates of C. difficile; assay: MIC against clinical isolates of C. difficile (summary); format: cell-based, Clostridioides difficile; settings: range over isolates of Table 3
Description: as §1, §2

[19] = broth microdilution, Mueller-Hilton II broth, anaerobic 48 hours 37°C, visual, triplicate, repeated twice
[20] = aliquots of wells without growth plated on BHIS agar, repeated twice
[21] = broth microdilution, anaerobic 48 hours 37°C, visual, read-out: MIC
[22] = plated on BHIS agar, read-out: MBC

## CN[C@H](CC(C)C)C(=O)N[C@H]1C(=O)N[C@@H](CC(N)=O)C(=O)N[C@H]2C(=O)N[C@H]3C(=O)N[C@H](C(=O)N[C@H](C(=O)O)c4cc(O)cc(O)c4-c4cc3ccc4O)[C@H](O)c3ccc(c(Cl)c3)Oc3cc2cc(c3O[C@@H]2O[C@H](CO)[C@@H](O)[C@H](O)[C@H]2O[C@H]2C[C@](C)(N)[C@H](O)[C@H](C)O2)Oc2ccc(cc2Cl)[C@H]1O [Vancomycin, Vancomycin hydrochloride]
[1]
  inhibition of spore formation (in words): did not inhibit spore formation
[2]; ATCC630, pH 6
  MBC: 2 µM
  MIC: 2 µM
[2]; ATCC630, pH 7
  MBC: 4 µM
  MIC: 4 µM
[2]; ATCC630, pH 8
  MBC: 16 µM
  MIC: 8 µM
[3]; Clostridioides difficile, ATCC630
  MBC: 2 µM
[3]; Clostridioides difficile, ATCC630, 48 h
  MIC: 2 µM
[4]; inoculum 5 × 10^6, 1× MIC
  Log CFU: 5.37
[4]; inoculum 5 × 10^6, 1× MIC, vs no treatment
  Log reduction: 1
[4]; inoculum 5 × 10^7, 1× MIC
  Log CFU: 7.03
[5]; Clostridioides difficile, BAA1870
  MBC: 4 µM
[5]; Clostridioides difficile, BAA1870, 48 h
  MIC: 4 µM
[6]; Clostridioides difficile, 1071
  MBC: 2 µM
[6]; Clostridioides difficile, 1071, 48 h
  MIC: 2 µM
[7]; Bifidobacterium longum, 48 h
  MIC: 2 µM
[7]; broth microdilution, supplemented BHIS broth, 48 hours
  MIC: 2 µM
[8]; Clostridioides difficile, 1079
  MBC: 2 µM
[8]; Clostridioides difficile, 1079, 48 h
  MIC: 2 µM
[9]
  inhibition of toxin production (in words): did not inhibit toxin production
[10]
  MIC: 64 µM
[11]; Clostridioides difficile, ATCC43255
  MBC: 4 µM
[11]; Clostridioides difficile, ATCC43255, 48 h
  MIC: 4 µM
[12]; Clostridioides difficile, 1082
  MBC: 2 µM
[12]; Clostridioides difficile, 1082, 48 h
  MIC: 2 µM
[13]
  MIC: > 64 µM
[14]
  reduction of bacterial burden: ~ 1.6 log10 CFU/mL
[15]
  MIC: > 64 µM
[16]; BAA1870, pH 6
  MBC: 4 µM
  MIC: 4 µM
[16]; BAA1870, pH 7
  MBC: 8 µM
  MIC: 4 µM
[16]; BAA1870, pH 8
  MBC: 16 µM
  MIC: 8 µM
[17]; Lactobacillus gasseri, ATCC19992, 48 h
  MIC: 1 µM
[17]; broth microdilution, MRS broth, 48 hours, read-out: MIC
  MIC: 1 µM

## GRKKKRRQRRRYK [HIV-TAT]
[3]; [19]
  MIC: >64 µM

## GRKKKRRQRRRYK-O-CATACAATTCTC-NH 2 [rpoA-TAT mismatch, mismatch control PNA conjugated to the TAT cell penetrating peptide]
[3]; [20]
  MBC: >32 µM
[3]; [19]
  MIC: >32 µM
[5]; [21]
  MIC: >32 µM
[5]; [22]
  MBC: >32 µM
[18]
  MIC against clinical isolates of C. difficile: > 32 µM
[11]; [21]
  MIC: >32 µM
[11]; [22]
  MBC: >32 µM

## KFFKFFKFFK-O-CATGGACAAAAC-NH2 [(KFF)3K-rpoA]
[3]; [20]
  MBC: 32 µM
[3]; [19]
  MIC: 32 µM

## KKKKKKKK-O-CATGGACAAAAC-NH2 [K8-rpoA]
[3]; [20]
  MBC: 32 µM
[3]; [19]
  MIC: 32 µM

## RFRRFRRFRRFRXB-O-CATGGACAAAAC-NH2 [(RFR)4XB -rpoA]
[3]; [20]
  MBC: 8 µM
[3]; [19]
  MIC: 8 µM

## RXRRXRRXRRXRXB-O-CATGGACAAAAC-NH2 [(RXR)4XB -rpoA]
[3]; [20]
  MBC: 8 µM
[3]; [19]
  MIC: 8 µM
